Legend:
Conditions in all cases: incubation time: 27 h, anaerobic, 37 °C
[1] = test system: Ruminococcus gnavus DSM 108212; assay: fold change of Tryptamine concentration vs plate DMSO controls (fold change (ratio)); higher = more amine produced
[2] = test system: Clostridium sporogenes DSM 1664; assay: as above
[3] = test system: Klebsiella aerogenes DSM 30053; assay: fold change of Cadaverine concentration vs plate DMSO controls (fold change (ratio)); higher = more amine produced
Escherichia coli IAI1 [4] = assay: as above
[5] = test system: Ruminococcus gnavus DSM 108212; assay: fold change of 2-Phenylethylamine concentration vs plate DMSO controls (fold change (ratio)); higher = more amine produced
[6] = test system: Klebsiella aerogenes DSM 30053; assay: fold change of Putrescine concentration vs plate DMSO controls (fold change (ratio)); higher = more amine produced
Escherichia coli IAI1 [7] = assay: as above
[8] = test system: Ruminococcus gnavus DSM 108212; assay: growth (OD595) fold change vs plate DMSO controls (fold change (ratio)); higher = more growth
[9] = test system: Klebsiella aerogenes DSM 30053; assay: as above
Escherichia coli IAI1 [10] = assay: as above
[11] = test system: Clostridium sporogenes DSM 1664; assay: as above
[12] = test system: Klebsiella aerogenes DSM 30053; assay: fold change of Histamine concentration vs plate DMSO controls (fold change (ratio)); higher = more amine produced
Experimental: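 Dose-response follow-up: bacteria (E. coli IAI1, K. aerogenes DSM 30053, C. sporogenes DSM 1664, R. gnavus DSM 108212) were grown anaerobically in mGAM at 37 °C for 27 h with compound at 0.6125-20 µM. Amines were measured in the whole culture by targeted LC-MS/MS. Metabolite fold change and OD595 fold change are relative to plate DMSO controls; n=2 biological replicates. OD fold changes are not clipped, so slightly negative values mean no growth.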

CCn1cc(C(=O)O)c(=O)c2cc(F)c(N3CCNCC3)nc21 [Enoxacin]
Conditions | fold change of 2-Phenylethylamine concentration | fold change of Cadaverine concentration | fold change of Histamine concentration | fold change of Putrescine concentration | fold change of Tryptamine concentration | growth
Escherichia coli IAI1 [4], 0.6125 µM | – | 1.43 | – | – | – | –
Escherichia coli IAI1 [4], 1.25 µM | – | 1.6 | – | – | – | –
Escherichia coli IAI1 [4], 2.5 µM | – | 1.14 | – | – | – | –
Escherichia coli IAI1 [4], 5 µM | – | 0.433 | – | – | – | –
Escherichia coli IAI1 [4], 10 µM | – | 0.292 | – | – | – | –
Escherichia coli IAI1 [4], 20 µM | – | 0.278 | – | – | – | –
Escherichia coli IAI1 [7], 0.6125 µM | – | – | – | 0.829 | – | –
Escherichia coli IAI1 [7], 1.25 µM | – | – | – | 0.362 | – | –
Escherichia coli IAI1 [7], 2.5 µM | – | – | – | 0.557 | – | –
Escherichia coli IAI1 [7], 5 µM | – | – | – | 0.832 | – | –
Escherichia coli IAI1 [7], 10 µM | – | – | – | 0.916 | – | –
Escherichia coli IAI1 [7], 20 µM | – | – | – | 0.993 | – | –
Escherichia coli IAI1 [10], 0.6125 µM | – | – | – | – | – | 0.893
Escherichia coli IAI1 [10], 1.25 µM | – | – | – | – | – | -0.0647
Escherichia coli IAI1 [10], 2.5 µM | – | – | – | – | – | -0.041
Escherichia coli IAI1 [10], 5 µM | – | – | – | – | – | 0.063
Escherichia coli IAI1 [10], 10 µM | – | – | – | – | – | 0.0275
Escherichia coli IAI1 [10], 20 µM | – | – | – | – | – | -0.0283
[1], 0.6125 µM | – | – | – | – | 0.907 | –
[1], 1.25 µM | – | – | – | – | 1.03 | –
[1], 2.5 µM | – | – | – | – | 1.98 | –
[1], 5 µM | – | – | – | – | 1.5 | –
[1], 10 µM | – | – | – | – | 1.3 | –
[1], 20 µM | – | – | – | – | 1.47 | –
[2], 0.6125 µM | – | – | – | – | 0.988 | –
[2], 1.25 µM | – | – | – | – | 0.965 | –
[2], 2.5 µM | – | – | – | – | 0.972 | –
[2], 5 µM | – | – | – | – | 0.712 | –
[2], 10 µM | – | – | – | – | 0.133 | –
[2], 20 µM | – | – | – | – | 0.0376 | –
[3], 0.6125 µM | – | 0.977 | – | – | – | –
[3], 1.25 µM | – | 0.984 | – | – | – | –
[3], 2.5 µM | – | 0.985 | – | – | – | –
[3], 5 µM | – | 1.01 | – | – | – | –
[3], 10 µM | – | 0.999 | – | – | – | –
[3], 20 µM | – | 0.994 | – | – | – | –
[5], 0.6125 µM | 0.788 | – | – | – | – | –
[5], 1.25 µM | 1.01 | – | – | – | – | –
[5], 2.5 µM | 1.5 | – | – | – | – | –
[5], 5 µM | 1.16 | – | – | – | – | –
[5], 10 µM | 1.04 | – | – | – | – | –
[5], 20 µM | 1.15 | – | – | – | – | –
[6], 0.6125 µM | – | – | – | 1.03 | – | –
[6], 1.25 µM | – | – | – | 1.06 | – | –
[6], 2.5 µM | – | – | – | 1.2 | – | –
[6], 5 µM | – | – | – | 1.27 | – | –
[6], 10 µM | – | – | – | 1.3 | – | –
[6], 20 µM | – | – | – | 1.34 | – | –
[8], 0.6125 µM | – | – | – | – | – | 0.917
[8], 1.25 µM | – | – | – | – | – | 1.07
[8], 2.5 µM | – | – | – | – | – | 0.725
[8], 5 µM | – | – | – | – | – | 0.638
[8], 10 µM | – | – | – | – | – | 0.638
[8], 20 µM | – | – | – | – | – | 0.488
[9], 0.6125 µM | – | – | – | – | – | 0.845
[9], 1.25 µM | – | – | – | – | – | 1.25
[9], 2.5 µM | – | – | – | – | – | 0.554
[9], 5 µM | – | – | – | – | – | 0.373
[9], 10 µM | – | – | – | – | – | 0.469
[9], 20 µM | – | – | – | – | – | 0.328
[11], 0.6125 µM | – | – | – | – | – | 1.15
[11], 1.25 µM | – | – | – | – | – | 1.19
[11], 2.5 µM | – | – | – | – | – | 1.06
[11], 5 µM | – | – | – | – | – | 0.904
[11], 10 µM | – | – | – | – | – | 0.245
[11], 20 µM | – | – | – | – | – | 0.00474
[12], 0.6125 µM | – | – | 0.971 | – | – | –
[12], 1.25 µM | – | – | 1.17 | – | – | –
[12], 2.5 µM | – | – | 1.18 | – | – | –
[12], 5 µM | – | – | 0.54 | – | – | –
[12], 10 µM | – | – | 0.252 | – | – | –
[12], 20 µM | – | – | 0.329 | – | – | –

C[C@@H](O)[C@H]1C(=O)N2C(C(=O)O)=C(S[C@@H]3CN[C@H](C(=O)N(C)C)C3)[C@H](C)[C@H]12 [Meropenem]
Conditions | fold change of 2-Phenylethylamine concentration, [5] | fold change of Cadaverine concentration, [3] | fold change of Histamine concentration, [12] | fold change of Putrescine concentration, [6] | fold change of Tryptamine concentration, [1] | growth, [8] | growth, [9]
0.6125 µM | 0.912 | 0.982 | 0.953 | 1 | 1.11 | 1.13 | 0.844
1.25 µM | 0.801 | 1.01 | 0.643 | 1.06 | 0.93 | 1.07 | 0.992
2.5 µM | 0.578 | 1 | 0.612 | 0.976 | 0.801 | 1.63 | 0.894
5 µM | 0.185 | 1.06 | 0.462 | 1.01 | 0.259 | 1.88 | 1.4
10 µM | 0.162 | 1.13 | 0.289 | 0.879 | 0.217 | 0.41 | 0.935
20 µM | 0.162 | 1.18 | 0.227 | 0.667 | 0.2 | 0.365 | 0.363

CN1CCN(c2c(F)cc3c(=O)c(C(=O)O)cn4c3c2SCC4)CC1 [Rufloxacin]
Conditions | fold change of 2-Phenylethylamine concentration, [5] | fold change of Cadaverine concentration, [3] | fold change of Histamine concentration, [12] | fold change of Putrescine concentration, [6] | fold change of Tryptamine concentration, [1] | fold change of Tryptamine concentration, [2] | growth, [8] | growth, [9] | growth, [11]
0.6125 µM | 0.871 | 0.967 | 1.1 | 0.99 | 0.989 | 1 | 1.07 | 0.848 | 1.09
1.25 µM | 1.12 | 0.979 | 1.03 | 0.992 | 1.18 | 0.994 | 0.974 | 0.939 | 0.879
2.5 µM | 2.04 | 0.981 | 1.96 | 1.05 | 2.02 | 0.972 | 0.91 | 0.636 | 0.898
5 µM | 1.33 | 1.03 | 0.834 | 1.12 | 1.51 | 0.931 | 0.61 | 0.425 | 1.09
10 µM | 1.22 | 1.09 | 0.211 | 1.19 | 1.24 | 0.674 | 0.593 | 0.466 | 0.742
20 µM | 1.18 | 1.12 | 0.22 | 1.19 | 1.16 | 0.0448 | 0.484 | 0.37 | 0.0686

Source: the supplement of paper PMC12494721
